In patent US12662451B2, “Chemical compounds and uses thereof” (GLAXOSMITHKLINE INTELLECTUAL PROPERTY (NO.4) LIMITED, priority 2023, dated 2026):

Columns and labels:
[1] = target: T1, recombinant full-length WRN protein (1-1432) (Homo sapiens, UniProt Q14191); experiment: WRN unwinding activity, fluorogenic 384-well assay (Example A); assay type: biochemical; conditions: WRN unwinding activity, 4 hr; Table 2; read-out: 4 hr UNW pIC50 (converted)
T1 construct: recombinant full-length WRN protein (1-1432)
T1 sequence (Q14191 whole entry): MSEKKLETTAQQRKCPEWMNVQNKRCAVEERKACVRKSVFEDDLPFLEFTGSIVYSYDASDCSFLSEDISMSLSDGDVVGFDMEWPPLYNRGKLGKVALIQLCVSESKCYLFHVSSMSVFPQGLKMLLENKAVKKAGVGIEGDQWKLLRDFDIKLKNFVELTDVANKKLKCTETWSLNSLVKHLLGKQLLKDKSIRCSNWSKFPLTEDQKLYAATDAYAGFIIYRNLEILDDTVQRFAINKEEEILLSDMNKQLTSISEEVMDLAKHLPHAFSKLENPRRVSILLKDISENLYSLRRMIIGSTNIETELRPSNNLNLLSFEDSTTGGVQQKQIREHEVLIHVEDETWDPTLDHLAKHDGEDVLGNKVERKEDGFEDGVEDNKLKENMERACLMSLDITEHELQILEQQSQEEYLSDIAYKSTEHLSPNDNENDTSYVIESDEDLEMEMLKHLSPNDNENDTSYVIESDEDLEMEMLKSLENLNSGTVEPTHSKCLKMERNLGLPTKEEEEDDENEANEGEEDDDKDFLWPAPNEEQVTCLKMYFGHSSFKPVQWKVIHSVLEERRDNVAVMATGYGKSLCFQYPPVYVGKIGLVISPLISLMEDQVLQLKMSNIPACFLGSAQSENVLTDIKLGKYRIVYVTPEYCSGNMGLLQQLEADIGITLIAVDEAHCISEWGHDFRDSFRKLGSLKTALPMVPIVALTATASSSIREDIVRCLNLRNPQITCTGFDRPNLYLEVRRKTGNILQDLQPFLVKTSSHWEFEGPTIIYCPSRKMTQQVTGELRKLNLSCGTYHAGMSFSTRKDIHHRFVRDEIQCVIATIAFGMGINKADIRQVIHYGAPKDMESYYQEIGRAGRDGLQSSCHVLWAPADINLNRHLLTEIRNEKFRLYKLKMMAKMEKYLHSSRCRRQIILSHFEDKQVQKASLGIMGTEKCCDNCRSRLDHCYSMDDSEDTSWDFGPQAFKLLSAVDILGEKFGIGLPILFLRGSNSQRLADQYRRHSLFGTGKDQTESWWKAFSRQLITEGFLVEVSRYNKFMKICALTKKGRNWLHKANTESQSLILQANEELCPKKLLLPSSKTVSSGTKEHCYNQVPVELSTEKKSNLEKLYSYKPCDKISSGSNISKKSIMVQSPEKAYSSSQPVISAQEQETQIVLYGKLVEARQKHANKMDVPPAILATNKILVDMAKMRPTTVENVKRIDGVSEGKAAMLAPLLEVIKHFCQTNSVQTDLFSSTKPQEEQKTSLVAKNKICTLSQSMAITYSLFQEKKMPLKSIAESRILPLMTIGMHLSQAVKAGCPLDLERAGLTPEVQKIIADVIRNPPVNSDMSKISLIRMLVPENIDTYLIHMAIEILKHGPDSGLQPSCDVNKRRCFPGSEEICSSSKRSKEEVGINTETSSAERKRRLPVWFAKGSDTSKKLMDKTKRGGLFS
In short: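 200 pM enzyme (2× stock) preincubated with compound 4 h at ambient temperature, then 200 μM ATP and 12 nM quenched TAMRA-labelled dsDNA (2× stocks) added for 60 min; EDTA-quenched. Buffer 25 mM Tris pH 8.0, 5 mM NaCl, 2 mM MgCl2. Fluorescence at 525/598 nm; pIC50 from four-parameter fit.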

[2] = system: SW48 human colorectal cancer cells (MSI-H cancer cells); experiment: SW48 cell viability, CellTiter-Glo, 120 hours (Example B); conditions: Homo sapiens, SW48, 120 h, read-out: SW48 pCC50, SW48 cell viability, 120 hours incubation (converted); Table 2
Description: SW48 human colorectal cancer cells (MSI-H cancer cells) were obtained from the American Type Culture Collection and maintained in growth medium composed of RPMI-1640 supplemented with 10% fetal bovine serum. Cells were maintained in a humidified 5% CO2 incubator at 37° C. Cell dissociation was conducted using TrypLE Select to detach cells from culture flasks. Following dissociation, cells were centrifuged briefly and resuspended in assay medium RPMI-1640+10% fetal bovine serum. Black 384-well assay plates were prepared from source plates of DMSO and compounds dissolved in DMSO prior to cell dispensation. These source plates were prepared in eleven point, 3-fold serial dilutions from 10 mM stocks stored at 4° C. Compounds and DMSO controls were dispensed into assay plates at 150 nanoliters per well from source plates using Labcyte Echo 555 or Echo 655T dispensers with Column 6 and Column 18 containing DMSO only. Cells were then seeded into prepared assay plates in 50 microliters assay medium at 250 cells per well into Columns 1 thru 17 and Columns 19-24. Assay medium without cells was added to column 18 to serve as a surrogate for 100% cell cytotoxicity. Following incubation for 120 hours in a humidified 5% CO2 incubator at 37° C., cellular ATP concentration of each well was measured and used as a surrogate of cell viability. This was performed by adding 50 microliters of CellTiter-Glo reagent to each well followed by a 10-minute incubation at room temperature. Luminescence was measured on a Synergy Neo or Synergy Neo2 multimode plate reader. Compound cytotoxic response (% C) was normalized to the robust means of column 6 (Control 1, 0% Cytotoxicity) and column 18 (Control 2, 100% Cytotoxicity) and normalized % cytotoxicity (% C) calculated. % C=100−100*((Compound−Control 2)/(Control1−Control2)). These normalized data were then used to determine a 50% cytotoxic response (CC50) using 4-parameter logistic curve model 201 in Activity Base XE:
[formula] • where A=minimum asymptote (% cytotoxicity), B=maximum asymptote (% cytotoxicity), C=Log CC50 (pCC50), D=Hill slope, and x=[inhibitor], (M).

| SMILES | IC50 [1] [nM] | CC50 [2] [nM] |
| --- | --- | --- |
| CN(c1ccc([C@H]2CCC[C@@H](C(=O)Nc3ccc(C(F)(F)F)cc3F)[C@@H]2C(=O)O)cc1)S(=O)(=O)c1cccnc1 [Example 95, (1R,2R,6S)-2-((2-fluoro-4-(trifluoromethyl)phenyl)carbamoyl)-6-(4-(N-methylpyridine-3-sulfonamido)phenyl)cyclohexane-1-carboxylic acid] | 2.51 | 3160 |
| Cc1cc(C)c(S(=O)(=O)N(C)c2ccc([C@H]3CCC[C@@H](C(=O)Nc4ccc(C(F)(F)F)cc4F)[C@@H]3C(=O)O)cc2)c(C)c1 [Example 103, (1R,2R,6S)-2-((2-fluoro-4-(trifluoromethyl)phenyl)carbamoyl)-6-(4-((N,2,4,6-tetramethylphenyl)sulfonamido)phenyl)cyclohexane-1-carboxylic acid] | 1.58 | 12600 |
| CN(c1ccc([C@H]2CCC[C@@H](C(=O)Nc3ccc(C(F)(F)F)cc3F)[C@@H]2C(=O)O)cc1)S(=O)(=O)c1c(Cl)cc(C(F)(F)F)cc1Cl [Example 104, (1R,2S,6R)-2-(4-((2,6-dichloro-N-methyl-4-(trifluoromethyl)phenyl)sulfonamido)phenyl)-6-((2-fluoro-4-(trifluoromethyl)phenyl)carbamoyl)cyclohexane-1-carboxylic acid] | 39.8 | 3980 |
| CN(c1ccc([C@H]2CCC[C@@H](C(=O)Nc3ccc(C(F)(F)F)cc3F)[C@@H]2C(=O)O)cc1)S(=O)(=O)c1ccc2c(c1)CN(C(=O)C(F)(F)F)CC2 [Example 108, (1R,2R,6S)-2-((2-fluoro-4-(trifluoromethyl)phenyl)carbamoyl)-6-(4-((N-methyl-2-(2,2,2-trifluoroacetyl)-1,2,3,4-tetrahydroisoquinoline)-7-sulfonamido)phenyl)cyclohexane-1-carboxylic acid] | 3.16 | 2000 |
| CN(c1ccc([C@H]2CCC[C@@H](C(=O)Nc3ccc(C(F)(F)F)cc3F)[C@@H]2C(=O)O)cc1)S(=O)(=O)c1ccc2c(c1)CCN(C(=O)C(F)(F)F)C2 [Example 111, (1R,2R,6S)-2-((2-fluoro-4-(trifluoromethyl)phenyl)carbamoyl)-6-(4-((N-methyl-2-(2,2,2-trifluoroacetyl)-1,2,3,4-tetrahydroisoquinoline)-6-sulfonamido)phenyl)cyclohexane-1-carboxylic acid] | 2.51 | 1580 |
| CN1CCc2c(cccc2S(=O)(=O)N(C)c2ccc([C@H]3CCC[C@@H](C(=O)Nc4ccc(C(F)(F)F)cc4F)[C@@H]3C(=O)O)cc2)C1 [Example 114, (1R,2S,6R)-2-(4-((N,2-dimethyl-1,2,3,4-tetrahydroisoquinoline)-5-sulfonamido)phenyl)-6-((2-fluoro-4-(trifluoromethyl)phenyl)carbamoyl)cyclohexane-1-carboxylic acid] | 7.94 | 2510 |
| CN(c1ccc([C@H]2CCC[C@@H](C(=O)Nc3ccc(C(F)(F)F)cc3F)[C@@H]2C(=O)O)cc1)S(=O)(=O)c1ccc(C2CCN(C(=O)OC(C)(C)C)CC2)cc1 [Example 115, (1R,2S,6R)-2-(4-((3-(1-(tert-butoxycarbonyl)piperidin-4-yl)-N-methylphenyl)sulfonamido)phenyl)-6-((2-fluoro-4-(trifluoromethyl)phenyl)carbamoyl)cyclohexane-1-carboxylic acid] | 5.01 | 1260 |
| CN(c1ccc([C@H]2CCC[C@@H](C(=O)Nc3ccc(C(F)(F)F)cc3F)[C@@H]2C(=O)O)cc1)S(=O)(=O)c1cccc(C2OCCO2)c1 [Example 118, (1R,2S,6R)-2-(4-((3-(1,3-dioxolan-2-yl)-N-methylphenyl)sulfonamido)phenyl)-6-((2-fluoro-4-(trifluoromethyl)phenyl)carbamoyl)cyclohexane-1-carboxylic acid] | 2 | 1260 |
| C=CS(=O)(=O)N(C)c1ccc([C@H]2CCC[C@@H](C(=O)Nc3ccc(C(F)(F)F)cc3F)[C@@H]2C(=O)O)cc1 [Example 135, (1R,2R,6S)-2-((2-fluoro-4-(trifluoromethyl)phenyl)carbamoyl)-6-(4-(N-methylvinylsulfonamido)phenyl)cyclohexane-1-carboxylic acid] | 2.51 | 2510 |

Continued, in another order:

| IC50 [1] [nM] | SMILES | CC50 [2] [nM] |
| --- | --- | --- |
| 5.01 | CN(c1ccc([C@H]2CCC[C@@H](C(=O)Nc3ccc(C(F)(F)F)cc3F)[C@@H]2C(=O)O)cc1)S(=O)(=O)c1ccc2oc(=O)n(C)c2c1 [Example 100, (1R,2S,6R)-2-(4-((N,3-dimethyl-2-oxo-2,3-dihydrobenzo[d]oxazole)-5-sulfonamido)phenyl)-6-((2-fluoro-4-(trifluoromethyl)phenyl)carbamoyl)cyclohexane-1-carboxylic acid] | 3980 |
| 6.31 | CN(c1ccc([C@H]2CCC[C@@H](C(=O)Nc3ccc(C(F)(F)F)cc3F)[C@@H]2C(=O)O)cc1)S(=O)(=O)c1ccc2nc(O)sc2c1 [Example 102, (1R,2R,6S)-2-((2-fluoro-4-(trifluoromethyl)phenyl)carbamoyl)-6-(4-((2-hydroxy-N-methylbenzo[d]thiazole)-6-sulfonamido)phenyl)cyclohexane-1-carboxylic acid] | 10000 |
| 3.16 | CN(c1ccc([C@H]2CCC[C@@H](C(=O)Nc3ccc(C(F)(F)F)cc3F)[C@@H]2C(=O)O)cc1)S(=O)(=O)c1ccc2ocnc2c1 [Example 106, (1R,2R,6S)-2-((2-fluoro-4-(trifluoromethyl)phenyl)carbamoyl)-6-(4-(N-methylbenzo[d]oxazole-5-sulfonamido)phenyl)cyclohexane-1-carboxylic acid] | 1580 |
| 6.31 | Cc1nc2ccc(S(=O)(=O)N(C)c3ccc([C@H]4CCC[C@@H](C(=O)Nc5ccc(C(F)(F)F)cc5F)[C@@H]4C(=O)O)cc3)cc2n1C [Example 131, (1R,2R,6S)-2-((2-fluoro-4-(trifluoromethyl)phenyl)carbamoyl)-6-(4-((N,1,2-trimethyl-1H-benzo[d]imidazole)-6-sulfonamido)phenyl)cyclohexane-1-carboxylic acid] | 3980 |
| 3.98 | CN(c1ccc([C@H]2CCC[C@@H](C(=O)Nc3ccc(C(F)(F)F)cc3F)[C@@H]2C(=O)O)cc1)S(=O)(=O)c1ccc(S(N)(=O)=O)cc1 [Example 133, (1R,2R,6S)-2-((2-fluoro-4-(trifluoromethyl)phenyl)carbamoyl)-6-(4-((N-methyl-4-sulfamoylphenyl)sulfonamido)phenyl)cyclohexane-1-carboxylic acid] | 12600 |
| 7.94 | CN(c1ccc([C@H]2CCC[C@@H](C(=O)Nc3ccc(C(F)(F)F)cc3F)[C@@H]2C(=O)O)cc1)S(=O)(=O)c1cccc(S(N)(=O)=O)c1 [Example 134, (1R,2R,6S)-2-((2-fluoro-4-(trifluoromethyl)phenyl)carbamoyl)-6-(4-((N-methyl-3-sulfamoylphenyl)sulfonamido)phenyl)cyclohexane-1-carboxylic acid] | 12600 |
| 39.8 | COc1cc(S(=O)(=O)N(C)c2ccc([C@H]3CCC[C@@H](C(=O)Nc4ccc(C(F)(F)F)cc4F)[C@@H]3C(=O)O)cc2)ccc1Br [Example 136, (1R,2S,6R)-2-(4-((4-bromo-3-methoxy-N-methylphenyl)sulfonamido)phenyl)-6-((2-fluoro-4-(trifluoromethyl)phenyl)carbamoyl)cyclohexane-1-carboxylic acid] | 3160 |
